Results as given in PubChem BioAssay (NCI).
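Exposure lasted 48 hours, with cells grown in 96-well plates and compounds tested at five concentrations. Abbreviation: GI50, concentration required for 50% inhibition of growth. TGI marks complete inhibition of growth.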

Experiments:
Assay in all cases: NCI anticancer screen, dose series, 48 h
786-0 renal = tested on: 786-0 renal
A498 renal = tested on: A498 renal
A549 NSCLC = tested on: A549 NSCLC
ACHN renal = tested on: ACHN renal
BT-549 breast = tested on: BT-549 breast
CAKI-1 renal = tested on: CAKI-1 renal
CCRF-CEM leukemia = tested on: CCRF-CEM leukemia
COLO 205 colon = tested on: COLO 205 colon
DU-145 prostate = tested on: DU-145 prostate
EKVX NSCLC = tested on: EKVX NSCLC
HCC-2998 colon = tested on: HCC-2998 colon
HCT-116 colon = tested on: HCT-116 colon
HCT-15 colon = tested on: HCT-15 colon
HL-60(TB) leukemia = tested on: HL-60(TB) leukemia
HOP-62 NSCLC = tested on: HOP-62 NSCLC
HOP-92 NSCLC = tested on: HOP-92 NSCLC
HS 578T breast = tested on: HS 578T breast
HT29 colon = tested on: HT29 colon
IGROV1 ovarian = tested on: IGROV1 ovarian
K-562 leukemia = tested on: K-562 leukemia
KM12 colon = tested on: KM12 colon
LOX IMVI melanoma = tested on: LOX IMVI melanoma
M14 melanoma = tested on: M14 melanoma
MALME-3M melanoma = tested on: MALME-3M melanoma
MCF7 breast = tested on: MCF7 breast
MDA-MB-231 breast = tested on: MDA-MB-231 breast
MDA-MB-435 = tested on: MDA-MB-435
MOLT-4 leukemia = tested on: MOLT-4 leukemia
NCI-H226 lung = tested on: NCI-H226 lung
NCI-H23 lung = tested on: NCI-H23 lung
NCI-H460 lung = tested on: NCI-H460 lung
NCI-H522 lung = tested on: NCI-H522 lung
NCI/ADR-RES ovarian = tested on: NCI/ADR-RES ovarian
OVCAR-3 ovarian = tested on: OVCAR-3 ovarian
OVCAR-4 ovarian = tested on: OVCAR-4 ovarian
OVCAR-5 ovarian = tested on: OVCAR-5 ovarian
OVCAR-8 ovarian = tested on: OVCAR-8 ovarian
PC-3 prostate = tested on: PC-3 prostate
RPMI-8226 leukemia = tested on: RPMI-8226 leukemia
RXF 393 renal = tested on: RXF 393 renal
SF-268 CNS = tested on: SF-268 CNS
SF-295 CNS = tested on: SF-295 CNS
SF-539 CNS = tested on: SF-539 CNS
SK-MEL-2 melanoma = tested on: SK-MEL-2 melanoma
SK-MEL-28 melanoma = tested on: SK-MEL-28 melanoma
SK-MEL-5 melanoma = tested on: SK-MEL-5 melanoma
SK-OV-3 ovarian = tested on: SK-OV-3 ovarian
SN12C renal = tested on: SN12C renal
SNB-19 CNS = tested on: SNB-19 CNS
SNB-75 CNS = tested on: SNB-75 CNS
SR leukemia = tested on: SR leukemia
SW-620 colon = tested on: SW-620 colon
T-47D breast = tested on: T-47D breast
TK-10 renal = tested on: TK-10 renal
U251 CNS = tested on: U251 CNS
UACC-257 melanoma = tested on: UACC-257 melanoma
UACC-62 melanoma = tested on: UACC-62 melanoma
UO-31 renal = tested on: UO-31 renal

For CCN(CC)CCOc1nc2ccccc2c2c1-c1ccc(OC)cc1C2=O, which GI50 (786-0 renal) is on record?
The GI50 was 1170 nM.

And the TGI (786-0 renal)?
Its TGI is 2680 nM.

And the GI50 (A498 renal)?
The GI50 was 728 nM.

And the TGI (A498 renal)?
Its TGI is 2180 nM.

And the GI50 (A549 NSCLC)?
The GI50 was 514 nM.

And the TGI (A549 NSCLC)?
Its TGI is 4.55 µM.

What about the GI50 (ACHN renal) of the same compound?
The GI50 was 364 nM.

What about the TGI (ACHN renal) of the same compound?
Its TGI is 2020 nM.

And the GI50 (BT-549 breast)?
Its GI50 is 3.29 µM.

What about the TGI (BT-549 breast) of the same compound?
Its TGI is 13.8 µM.

And the GI50 (CAKI-1 renal)?
The GI50 was 486 nM.

What about the TGI (CAKI-1 renal) of the same compound?
The TGI was 3.66 µM.

What about the GI50 (CCRF-CEM leukemia) of the same compound?
The GI50 was 267 nM.

What about the TGI (CCRF-CEM leukemia) of the same compound?
Its TGI is 2230 nM.

What about the GI50 (COLO 205 colon) of the same compound?
The GI50 was 490 nM.

What about the TGI (COLO 205 colon) of the same compound?
The TGI was 1880 nM.

What about the GI50 (DU-145 prostate) of the same compound?
Its GI50 is 505 nM.

And the TGI (DU-145 prostate)?
Its TGI is 2160 nM.

What about the GI50 (EKVX NSCLC) of the same compound?
Its GI50 is 1590 nM.

And the TGI (EKVX NSCLC)?
The TGI was 4.79 µM.

What about the GI50 (HCC-2998 colon) of the same compound?
The GI50 was 1260 nM.

And the TGI (HCC-2998 colon)?
Its TGI is 3.21 µM.

What about the GI50 (HCT-116 colon) of the same compound?
Its GI50 is 331 nM.

What about the TGI (HCT-116 colon) of the same compound?
The TGI was 1550 nM.

And the GI50 (HCT-15 colon)?
The GI50 was 472 nM.

What about the TGI (HCT-15 colon) of the same compound?
Its TGI is 4.82 µM.

And the GI50 (HL-60(TB) leukemia)?
Its GI50 is 395 nM.

What about the TGI (HL-60(TB) leukemia) of the same compound?
The TGI was 1850 nM.

What about the GI50 (HOP-62 NSCLC) of the same compound?
The GI50 was 1130 nM.

And the GI50 (HOP-92 NSCLC)?
The GI50 was 2090 nM.

What about the TGI (HOP-92 NSCLC) of the same compound?
The TGI was > 28.6 µM.

And the GI50 (HS 578T breast)?
The GI50 was 1190 nM.

And the TGI (HS 578T breast)?
Its TGI is 5.78 µM.

What about the GI50 (HT29 colon) of the same compound?
The GI50 was 334 nM.

What about the TGI (HT29 colon) of the same compound?
The TGI was 1540 nM.

What about the GI50 (IGROV1 ovarian) of the same compound?
The GI50 was 384 nM.

And the TGI (IGROV1 ovarian)?
The TGI was 2630 nM.

What about the GI50 (K-562 leukemia) of the same compound?
Its GI50 is 276 nM.

And the TGI (K-562 leukemia)?
Its TGI is 1190 nM.

What about the GI50 (KM12 colon) of the same compound?
The GI50 was 395 nM.

And the TGI (KM12 colon)?
The TGI was 1580 nM.

And the GI50 (LOX IMVI melanoma)?
Its GI50 is 432 nM.

And the TGI (LOX IMVI melanoma)?
Its TGI is 1810 nM.

What about the GI50 (M14 melanoma) of the same compound?
The GI50 was 1360 nM.

And the TGI (M14 melanoma)?
The TGI was 3000 nM.

And the GI50 (MALME-3M melanoma)?
Its GI50 is 628 nM.

And the TGI (MALME-3M melanoma)?
The TGI was 1970 nM.

And the GI50 (MCF7 breast)?
The GI50 was 345 nM.

And the TGI (MCF7 breast)?
The TGI was 2230 nM.

And the GI50 (MDA-MB-231 breast)?
Its GI50 is 1400 nM.

What about the TGI (MDA-MB-231 breast) of the same compound?
The TGI was 6.22 µM.

And the GI50 (MDA-MB-435)?
The GI50 was 881 nM.

What about the TGI (MDA-MB-435) of the same compound?
Its TGI is 2360 nM.

What about the GI50 (MOLT-4 leukemia) of the same compound?
The GI50 was 251 nM.

What about the TGI (MOLT-4 leukemia) of the same compound?
The TGI was 924 nM.

What about the GI50 (NCI-H226 lung) of the same compound?
Its GI50 is 935 nM.

And the TGI (NCI-H226 lung)?
Its TGI is 4.42 µM.

And the GI50 (NCI-H23 lung)?
The GI50 was 1270 nM.

What about the TGI (NCI-H23 lung) of the same compound?
The TGI was 4.07 µM.

And the GI50 (NCI-H460 lung)?
Its GI50 is 317 nM.

And the TGI (NCI-H460 lung)?
Its TGI is 1300 nM.

And the GI50 (NCI-H522 lung)?
The GI50 was 613 nM.

What about the TGI (NCI-H522 lung) of the same compound?
Its TGI is 2400 nM.

And the GI50 (NCI/ADR-RES ovarian)?
The GI50 was 807 nM.

What about the TGI (NCI/ADR-RES ovarian) of the same compound?
Its TGI is 34.5 µM.

What about the GI50 (OVCAR-3 ovarian) of the same compound?
Its GI50 is 642 nM.

What about the TGI (OVCAR-3 ovarian) of the same compound?
The TGI was 2150 nM.

What about the GI50 (OVCAR-4 ovarian) of the same compound?
Its GI50 is 1360 nM.

And the TGI (OVCAR-4 ovarian)?
Its TGI is 6.83 µM.

And the GI50 (OVCAR-5 ovarian)?
Its GI50 is 1610 nM.

What about the TGI (OVCAR-5 ovarian) of the same compound?
Its TGI is 7.51 µM.

And the GI50 (OVCAR-8 ovarian)?
Its GI50 is 527 nM.

And the TGI (OVCAR-8 ovarian)?
The TGI was 5.7 µM.

What about the GI50 (PC-3 prostate) of the same compound?
The GI50 was 1440 nM.

And the TGI (PC-3 prostate)?
The TGI was 23.3 µM.

And the GI50 (RPMI-8226 leukemia)?
Its GI50 is 449 nM.

And the TGI (RPMI-8226 leukemia)?
Its TGI is 2150 nM.

And the GI50 (RXF 393 renal)?
The GI50 was 1630 nM.

What about the TGI (RXF 393 renal) of the same compound?
Its TGI is 4.44 µM.

What about the GI50 (SF-268 CNS) of the same compound?
The GI50 was 445 nM.

And the TGI (SF-268 CNS)?
Its TGI is 2050 nM.

And the GI50 (SF-295 CNS)?
The GI50 was 1910 nM.

And the TGI (SF-295 CNS)?
Its TGI is 12.4 µM.

What about the GI50 (SF-539 CNS) of the same compound?
The GI50 was 1340 nM.

What about the TGI (SF-539 CNS) of the same compound?
The TGI was 4.25 µM.

What about the GI50 (SK-MEL-2 melanoma) of the same compound?
The GI50 was 2140 nM.

What about the TGI (SK-MEL-2 melanoma) of the same compound?
The TGI was 4.36 µM.

What about the GI50 (SK-MEL-28 melanoma) of the same compound?
The GI50 was 1630 nM.

And the TGI (SK-MEL-28 melanoma)?
The TGI was 3.29 µM.

What about the GI50 (SK-MEL-5 melanoma) of the same compound?
Its GI50 is 1520 nM.

And the TGI (SK-MEL-5 melanoma)?
Its TGI is 3.09 µM.

What about the GI50 (SK-OV-3 ovarian) of the same compound?
The GI50 was 2480 nM.

What about the TGI (SK-OV-3 ovarian) of the same compound?
The TGI was > 36.6 µM.

What about the GI50 (SN12C renal) of the same compound?
Its GI50 is 502 nM.

What about the TGI (SN12C renal) of the same compound?
Its TGI is 6.21 µM.

And the GI50 (SNB-19 CNS)?
The GI50 was 788 nM.

And the TGI (SNB-19 CNS)?
Its TGI is 6.6 µM.

What about the GI50 (SNB-75 CNS) of the same compound?
Its GI50 is 1440 nM.

And the TGI (SNB-75 CNS)?
Its TGI is 5.19 µM.

And the GI50 (SR leukemia)?
The GI50 was 316 nM.

And the TGI (SR leukemia)?
The TGI was 1070 nM.

What about the GI50 (SW-620 colon) of the same compound?
Its GI50 is 282 nM.

What about the TGI (SW-620 colon) of the same compound?
The TGI was 1580 nM.

What about the GI50 (T-47D breast) of the same compound?
Its GI50 is 2510 nM.

And the TGI (T-47D breast)?
The TGI was 8.8 µM.

And the GI50 (TK-10 renal)?
The GI50 was 1850 nM.

What about the TGI (TK-10 renal) of the same compound?
The TGI was 12.6 µM.

What about the GI50 (U251 CNS) of the same compound?
Its GI50 is 446 nM.

And the TGI (U251 CNS)?
The TGI was 2300 nM.

What about the GI50 (UACC-257 melanoma) of the same compound?
Its GI50 is 1600 nM.

What about the TGI (UACC-257 melanoma) of the same compound?
Its TGI is 3.38 µM.

And the GI50 (UACC-62 melanoma)?
The GI50 was 1700 nM.

What about the TGI (UACC-62 melanoma) of the same compound?
The TGI was 4.48 µM.

What about the GI50 (UO-31 renal) of the same compound?
The GI50 was 130 nM.

And the TGI (UO-31 renal)?
The TGI was 1410 nM.
